IC50, EC50 and melting point data for five molecules are collected here from patent US7772183B2 (Bristol-Myers Squibb Company, priority 2005, dated 2010).

Data set [1] concerns the target T1, HCV NS3/4A protease complex, BMS strain (UniProt P27958, species not given/STRAIN_BMS).
T1 construct: said of H77 and J4L6S; fused on or other part: A three-lysine solubilising tail at the C-terminus of NS4A and a His tag (pET21b, Ni-NTA purification)
Description: FRET peptide assay to monitor HCV NS3/4A proteolytic activity (BMS strain). The data set is classed as biochemical, Hepatitis C virus (genotype 1a). The settings on record: NS3/4A BMS strain; read-out: IC50 Range. The method, boiled down: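 Recombinant NS3/4A complexes (aa 1027–1711) from H77 (1a) and J4L6S (1b) carried a three-lysine tail, C1711G and C1454S. They were expressed in E. coli BL21(DE3) (0.5 mM IPTG, 22 h, 20 °C), then purified by Ni-NTA and Superdex-S200 to >90% purity. The BMS strain was a genotype 1a clone from patient serum.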

Data set [2] relates to HCV replicon in HUH-7 cells. Description: HCV replicon FRET assay. Type of data set: cell-based, Hepatitis C virus (strain 1b). The settings on record: Hepatitis C virus, Huh-7; HCV replicon, for compounds tested; read-out: EC50 Range. In short, it runs like this:
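HUH-7 cells stably carrying a genotype 1b subgenomic HCV replicon (NS3–NS5B) treated with compound for 4 days at 37° C, 0.5% DMSO final. Cytotoxicity (CC50) read by alamar Blue; cells then lysed with 10 μM FRET HCV protease peptide substrate and kinetically read (340/490 nm) for EC50.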
A general note: In antiviral work, replicon cells carry a viral genome segment that copies itself.

A word on the IC50: it is the concentration needed to halve the response being measured. In general, EC50 refers to the midpoint of the concentration-response curve. The term melting point denotes the temperature, or range, at which the solid turns liquid.

Bounds are passed on as bounds.

T1 sequence (P27958 1027-1657, change not shown, one chain of several): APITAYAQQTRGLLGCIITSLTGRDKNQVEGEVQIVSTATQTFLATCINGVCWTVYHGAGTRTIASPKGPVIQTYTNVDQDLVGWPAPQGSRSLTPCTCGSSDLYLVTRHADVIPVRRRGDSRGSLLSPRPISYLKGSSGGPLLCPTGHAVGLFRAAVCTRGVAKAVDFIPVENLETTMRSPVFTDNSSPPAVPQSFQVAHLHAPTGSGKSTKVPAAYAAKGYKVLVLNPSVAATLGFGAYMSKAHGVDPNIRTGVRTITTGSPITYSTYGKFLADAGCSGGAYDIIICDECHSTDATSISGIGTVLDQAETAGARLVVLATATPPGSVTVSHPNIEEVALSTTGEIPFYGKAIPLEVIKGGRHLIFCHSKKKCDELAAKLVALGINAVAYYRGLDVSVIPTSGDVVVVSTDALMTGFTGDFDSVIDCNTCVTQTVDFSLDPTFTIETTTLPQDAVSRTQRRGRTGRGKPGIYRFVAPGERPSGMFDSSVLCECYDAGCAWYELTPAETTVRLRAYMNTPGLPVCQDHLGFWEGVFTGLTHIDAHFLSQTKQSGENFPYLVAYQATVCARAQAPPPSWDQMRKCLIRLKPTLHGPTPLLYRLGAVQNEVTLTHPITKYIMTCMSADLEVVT

`CC(C)(C)OC(=O)N[C@H]1CCCOC/C=C\[C@@H]2C[C@@]2(C(=O)NS(=O)(=O)C2CC2)NC(=O)[C@@H]2C[C@@H](OC(=O)NC3CCCCC3)CN2C1=O` [Compound 36, 18-(cyclohexylaminocarbonyloxy)-14-tert-butoxycarbonylamino-4-cyclopropylsulfonylaminocarbonyl-2,15-dioxo-3,16-diaza-10-oxatricyclo-[14.3.0.0^4,6]-nonadec-7-ene]: the melting point was in the range of 156 to 158 °C. Besides, the IC50 in data set [1] was 100 to 1000 nM. For the same molecule, the half-maximal effective concentration (EC50) in data set [2] was > 1000 nM.

`CCC(C(=O)O[C@@H]1C[C@H]2C(=O)N[C@]3(C(=O)NS(=O)(=O)C4CC4)C[C@H]3/C=C\COCCC[C@H](NC(=O)OC(C)(C)C)C(=O)N2C1)c1ccccc1` (mixture of isomers) [Compound 5, 18-(2-phenylbutyryloxy)-14-tert-butoxycarbonylamino-4-cyclopropylsulfonylaminocarbonyl-2,15-dioxo-3,16-diaza-10-oxatricyclo-[14.3.0.0^4,6]-nonadec-7-ene]: the melting point lay in the range of 113 to 115 °C. In data set [1], the IC50 is < 100 nM. For the same molecule, in data set [2], the EC50 is > 1000 nM.

In turn, `CC(C)(C)OC(=O)N[C@H]1CCCCC/C=C\[C@@H]2C[C@@]2(C(=O)NS(=O)(=O)C2CC2)NC(=O)[C@@H]2C[C@@H](OC(=O)c3ccc4c(c3)OCO4)CN2C1=O` [Compound 16, 18-(3,4-methylenedioxybenzoyloxy)-14-tert-butoxycarbonylamino-4-cyclopropylsulfonylaminocarbonyl-2,15-dioxo-3,16-diazatricyclo-[14.3.0.0^4,6]-nonadec-7-ene] showed a melting point of 153 to 155 °C. Besides, the IC50 in data set [1] was < 100 nM. The 50% effective concentration (EC50) in data set [2] was < 100 nM.

`CC(C)(C)OC(=O)N[C@H]1CCCCC/C=C\[C@@H]2C[C@@]2(C(=O)NS(=O)(=O)C2CC2)NC(=O)[C@@H]2C[C@@H](OC(=O)c3ccc(-c4ccccc4)cc3)CN2C1=O` [Compound 19, 18-(4-biphenylcarbonyloxy)-14-tert-butoxycarbonylamino-4-cyclopropylsulfonylaminocarbonyl-2,15-dioxo-3,16-diazatricyclo-[14.3.0.0^4,6]-nonadec-7-ene] yielded a melting point of 162 to 164 °C. Also, the IC50 in data set [1] was < 100 nM. In addition, the EC50 in data set [2] was < 100 nM.

Take `CC(C)(C)OC(=O)N[C@H]1CCCCC/C=C\[C@@H]2C[C@@]2(C(=O)NS(=O)(=O)C2CC2)NC(=O)[C@@H]2C[C@@H](OC(=O)c3ccc4ccccc4c3)CN2C1=O` [Compound 18, 18-(2-naphthoyloxy)-14-tert-butoxycarbonylamino-4-cyclopropylsulfonylaminocarbonyl-2,15-dioxo-3,16-diazatricyclo-[14.3.0.0^4,6]-nonadec-7-ene]: the melting point is 156 to 158 °C. Further, the IC50 in data set [1] is < 100 nM. Also, the EC50 in data set [2] was < 100 nM.
